Measurements as given in ChEMBL document CHEMBL1255200, “Exploration of piperidine-4-yl-aminopyrimidines as HIV-1 reverse transcriptase inhibitors. N-Phenyl derivatives with broad potency against resistant mutant viruses” (Bioorg Med Chem Lett, 2010).

How the values were obtained:
[1] = test system: Human immunodeficiency virus 1; assay: Antiviral activity against HIV1 harboring reverse transcriptase K103N/L100I double mutant infected in human MT4 cells assessed as reduction of virus-induced cytopathic effect by replication assay in presence of 10% FBS; assay type: functional, organism-based; settings: Human immunodeficiency virus 1, MT4
[2] = test system: Human immunodeficiency virus 1; assay: Antiviral activity against HIV1 harboring reverse transcriptase K103N/Y181C double mutant infected in human MT4 cells assessed as reduction of virus-induced cytopathic effect by replication assay in presence of 10% FBS; assay type: functional, organism-based; settings: Human immunodeficiency virus 1, MT4
[3] = test system: Human immunodeficiency virus 1; assay: Antiviral activity against HIV1 harboring reverse transcriptase Y188L mutant infected in human MT4 cells assessed as reduction of virus-induced cytopathic effect by replication assay in presence of 10% FBS; assay type: functional, organism-based; settings: Human immunodeficiency virus 1, MT4
[4] = biological target: Human immunodeficiency virus type 1 reverse transcriptase (Human immunodeficiency virus 1, UniProt Q72547); assay: Inhibition of HIV1 recombinant wild type reverse transcriptase by SPA heteropolymeric assay
[5] = biological target: Human immunodeficiency virus type 1 reverse transcriptase (Human immunodeficiency virus 1, UniProt Q72547, K103N/Y181C); assay: Inhibition of HIV1 recombinant reverse transcriptase K103N/Y181C double mutant by SPA heteropolymeric assay
[6] = biological target: Human immunodeficiency virus type 1 reverse transcriptase (Human immunodeficiency virus 1, UniProt Q72547, Y188L); assay: Inhibition of HIV1 recombinant reverse transcriptase Y188L mutant by SPA heteropolymeric assay
[7] = test system: Human immunodeficiency virus 1; assay: Antiviral activity against wild type HIV1 infected in human MT4 cells assessed as reduction of virus-induced cytopathic effect by replication assay in presence of 10% FBS; assay type: functional, organism-based; settings: Human immunodeficiency virus 1, MT4
[8] = Clearance in human liver microsomes; assay type: ADME, Microsome
[9] = test system: Human immunodeficiency virus 1; assay: Selectivity ratio of IC50 for wild type HIV1 in presence of 40% human serum to IC50 for wild type HIV1 in presence of 10% FBS; assay type: functional
[10] = test system: Human immunodeficiency virus 1; assay: Antiviral activity against HIV1 harboring reverse transcriptase V106A mutant infected in human MT4 cells assessed as reduction of virus-induced cytopathic effect by replication assay in presence of 10% FBS; assay type: functional, organism-based; settings: Human immunodeficiency virus 1, MT4
[11] = test system: Human immunodeficiency virus 1; assay: Antiviral activity against wild type HIV1 infected in human MT4 cells assessed as reduction of virus-induced cytopathic effect by replication assay in presence of 40% human serum; assay type: functional, organism-based; settings: Human immunodeficiency virus 1, MT4

Row | Structure (SMILES) | IC50 [1] [nM] | IC50 [2] [nM] | IC50 [3] [nM] | IC50 [4] [nM] | IC50 [5] [nM] | IC50 [6] [nM] | IC50 [7] [nM] | microsomal CLint [8] [µL/min/mg] | Ratio IC50 [9] | IC50 [10] [nM] | IC50 [11] [nM]
1 | O=C1Nc2ccc(Cl)cc2[C@@](C#CC2CC2)(C(F)(F)F)O1 [EFAVIRENZ] | > 100 | 82.8 | > 100 | – | – | – | – | – | – | – | –
2 | COc1cc(C#N)cc(C)c1Oc1nc(NC2CCN(c3cccc(C(N)=O)c3)CC2)ncc1Br | – | – | – | 56 | 56 | – | – | – | – | – | –
3 | Cc1cc(C#N)cc(C)c1Oc1nc(NC2CCN(c3cccc(C(=O)O)c3)CC2)ncc1Br | – | – | – | 16 | > 1000 | – | – | – | – | – | –
4 | Cc1cc(C#N)cc(Cl)c1Oc1nc(NC2CCN(c3cccc(C(N)=O)c3)CC2)ncc1Br | – | – | – | 28 | 28 | 413 | – | – | – | – | –
5 | Cc1cc(C#N)cc(C)c1Oc1nc(NC2CCN(c3ccccc3C(N)=O)CC2)ncc1Br | – | – | – | 32 | 967 | – | – | – | – | – | –
6 | Cc1cc(C#N)cc(C)c1Oc1nc(NC2CCN(Cc3ccc(S(N)(=O)=O)cc3Cl)CC2)ncc1Br | 5.9 | 7.3 | 2.8 | – | – | – | 6.1 | 151 | 8 | 2 | 48.7
7 | Cc1cc(C#N)cc(C)c1Oc1ccnc(NC2CCN(c3cccc(C#N)c3)CC2)n1 | – | – | – | 51 | 772 | – | – | – | – | – | –
8 | Cc1cc(C#N)cc(C)c1Oc1nc(NC2CCN(c3cccc(C(N)=O)c3)CC2)ncc1N | – | – | – | 19 | 17 | 118 | – | – | – | – | –
9 | Cc1cc(C#N)cc(C)c1Oc1ccnc(NC2CCN(c3ccc(Cl)c(C(N)=O)c3)CC2)n1 | – | – | – | 9 | 192 | – | – | – | – | – | –
10 | COc1cc(C#N)cc(C)c1Oc1nc(NC2CCN(c3cccc(C(N)=O)c3)CC2)ncc1Cl | – | – | – | 19 | 19 | 101 | – | – | – | – | –
11 | Cc1cc(C#N)cc(C)c1Oc1ccnc(NC2CCN(c3cc(Cl)cc(C(N)=O)c3)CC2)n1 | – | – | – | 28 | 265 | – | – | – | – | – | –
12 | Cc1cc(C#N)cc(Cl)c1Oc1ccnc(NC2CCN(c3cccc(C(N)=O)c3)CC2)n1 | 42 | 5.3 | 1.6 | 8 | 8 | – | 0.4 | 274 | 17.4 | – | 7.5
13 | Cc1cc(C#N)cc(C)c1Oc1nc(NC2CCN(c3cccc(C(N)=O)c3)CC2)ncc1F | – | – | – | 14 | 14 | 35 | – | – | – | – | –
14 | Cc1cc(C#N)cc(C)c1Oc1nc(Nc2ccc(C#N)cc2)nc(N)c1Br [ETRAVIRINE] | – | 9.2 | – | – | – | – | – | 29 | – | – | –
15 | Cc1cc(C#N)cc(Cl)c1Nc1nc(NC2CCN(c3cccc(C(N)=O)c3)CC2)ncc1Br | 2.9 | 4.9 | < 1.2 | 15 | 15 | 42 | 1.2 | 418 | 8.6 | 0.5 | 9.9
16 | Cc1cnc(NC2CCN(c3cccc(C(N)=O)c3)CC2)nc1Oc1c(C)cc(C#N)cc1C | 6.7 | 3.8 | < 1.2 | 12 | 15 | – | 1.1 | 730 | 4 | 0.6 | 4.5
17 | Cc1cc(C#N)cc(C)c1Nc1nc(NC2CCN(c3cccc(C(N)=O)c3)CC2)ncc1Br | 10.8 | 11.7 | 2.7 | 19 | 19 | 75 | 1.5 | 42 | 9.8 | 0.9 | 14.2
18 | Cc1cc(C#N)cc(C)c1Oc1nc(NC2CCN(c3cccc(C(N)=O)c3)CC2)ncc1C(F)(F)F | – | – | – | 86 | 41 | – | – | – | – | – | –
19 | COc1cc(C#N)cc(C)c1Oc1ccnc(NC2CCN(c3cccc(C(N)=O)c3)CC2)n1 | – | – | – | 18 | 18 | 64 | – | – | – | – | –

Row | Structure (SMILES) | IC50 [1] [nM] | IC50 [2] [nM] | IC50 [3] [nM] | IC50 [4] [nM] | IC50 [5] [nM] | IC50 [6] [nM] | IC50 [7] [nM] | microsomal CLint [8] [µL/min/mg] | Ratio IC50 [9] | IC50 [10] [nM] | IC50 [11] [nM]
20 | COc1cc(C#N)cc(C)c1Oc1nc(NC2CCN(c3cccc(C(N)=O)c3)CC2)ncc1C | – | – | – | 21 | 21 | 66 | – | – | – | – | –
21 | Cc1cc(C#N)cc(C)c1Oc1ccnc(NC2CCN(c3ccc(S(N)(=O)=O)cc3)CC2)n1 | – | – | – | 24 | > 1000 | > 1000 | – | – | – | – | –
22 | Cc1cc(C#N)cc(C)c1Oc1ccnc(NC2CCN(c3cccc(S(C)(=O)=O)c3)CC2)n1 | – | – | – | 11 | 238 | – | – | – | – | – | –
23 | Cc1cc(C#N)cc(C)c1Oc1nc(NC2CCN(c3cccc(C#N)c3)CC2)ncc1Br | – | – | – | 103 | 352 | – | – | – | – | – | –
24 | Cc1cc(C#N)cc(C)c1Oc1nc(NC2CCN(c3cccc(C(N)=O)c3)CC2)ncc1[N+](=O)[O-] | – | – | – | 109 | 64 | – | – | – | – | – | –
25 | Cc1cc(C#N)cc(Cl)c1Nc1ccnc(NC2CCN(c3cccc(C(N)=O)c3)CC2)n1 | – | – | – | 36 | 36 | – | – | – | – | – | –
26 | Cc1cc(C#N)cc(C)c1Oc1nc(NC2CCN(c3cc(C(N)=O)ccc3Cl)CC2)ncc1Br | – | – | – | 76 | > 1000 | 874 | – | – | – | – | –
27 | Cc1cc(C#N)cc(C)c1Nc1ccnc(NC2CCN(c3cccc(C(N)=O)c3)CC2)n1 | > 100 | 15.2 | 3.7 | 23 | 23 | – | 0.5 | 31 | 27.1 | 0.8 | 13.9
28 | Cc1cc(C#N)cc(Cl)c1Oc1nc(NC2CCN(c3cccc(C(N)=O)c3)CC2)ncc1Cl | – | – | – | 20 | 20 | 48 | – | – | – | – | –
29 | Cc1cc(C#N)cc(C)c1Oc1nc(NC2CCN(c3ccc(C(N)=O)cc3)CC2)ncc1Br | – | – | – | 24 | > 1000 | – | – | – | – | – | –
30 | Cc1cc(C#N)cc(C)c1Oc1ccnc(NC2CCN(c3cccc(S(N)(=O)=O)c3)CC2)n1 | – | – | – | 15 | 622 | 194 | – | – | – | – | –
31 | Cc1cnc(NC2CCN(c3cccc(C(N)=O)c3)CC2)nc1Oc1c(C)cc(C#N)cc1Cl | 7.4 | 5.5 | 1.4 | 6 | 6 | – | 1.6 | 580 | 8.6 | 0.7 | 14.2
32 | Cc1cc(C#N)cc(C)c1Oc1nc(NC2CCN(c3cccc(S(N)(=O)=O)c3)CC2)ncc1Br | – | – | – | 19 | 72 | 105 | – | – | – | – | –
33 | Cc1cc(C#N)cc(C)c1Oc1nc(NC2CCN(c3cccc(C(N)=O)c3)CC2)ncc1Br | – | – | – | 19 | 30 | 70 | – | – | – | – | –
34 | Cc1cc(C#N)cc(F)c1Oc1nc(NC2CCN(c3cccc(C(N)=O)c3)CC2)ncc1Br | 18.4 | 28 | 5.5 | 6 | 6 | 29 | 7.3 | 82 | 2.5 | 3.9 | 18.2
35 | Cc1cc(C#N)cc(C)c1Oc1ccnc(NC2CCN(c3cccc(C(N)=O)c3)CC2)n1 | – | – | – | 7 | 16 | 34 | – | – | – | – | –
36 | Cc1cc(C#N)cc(C)c1Oc1nc(NC2CCN(c3cccc(S(C)(=O)=O)c3)CC2)ncc1Br | – | – | – | 42 | 100 | 831 | – | – | – | – | –
37 | Cc1cc(C#N)cc(C)c1Oc1nc(NC2CCN(c3cccc(C(N)=O)c3)CC2)ncc1Cl | – | – | – | 24 | 13 | 203 | – | – | – | – | –
